Data from ChEMBL document CHEMBL1127170, “Cyclooxygenase and 5-lipoxygenase inhibitory activity of 2,6 di-t-butylphenols linked by a sulfur atom to 1,3,4-thiadiazoles and 1,3,4-oxadiazoles” (Bioorg Med Chem Lett, 1993).

Experiments:
[1] = target: T1, Cyclooxygenase (Rattus norvegicus) (UniProt P35355+Q63921); assay: The compound was tested for the inhibition of Prostaglandin G/H synthase in intact basophilic rat leukemia cells at 10 uM
[2] = target: T2, Polyunsaturated fatty acid 5-lipoxygenase (Rattus norvegicus) (UniProt P12527); assay: The compound was tested for the inhibition of 5-lipoxygenase in intact basophilic rat leukemia cells at 10 uM; type: cell-based; details: RBL-1
T2 sequence (whole entry): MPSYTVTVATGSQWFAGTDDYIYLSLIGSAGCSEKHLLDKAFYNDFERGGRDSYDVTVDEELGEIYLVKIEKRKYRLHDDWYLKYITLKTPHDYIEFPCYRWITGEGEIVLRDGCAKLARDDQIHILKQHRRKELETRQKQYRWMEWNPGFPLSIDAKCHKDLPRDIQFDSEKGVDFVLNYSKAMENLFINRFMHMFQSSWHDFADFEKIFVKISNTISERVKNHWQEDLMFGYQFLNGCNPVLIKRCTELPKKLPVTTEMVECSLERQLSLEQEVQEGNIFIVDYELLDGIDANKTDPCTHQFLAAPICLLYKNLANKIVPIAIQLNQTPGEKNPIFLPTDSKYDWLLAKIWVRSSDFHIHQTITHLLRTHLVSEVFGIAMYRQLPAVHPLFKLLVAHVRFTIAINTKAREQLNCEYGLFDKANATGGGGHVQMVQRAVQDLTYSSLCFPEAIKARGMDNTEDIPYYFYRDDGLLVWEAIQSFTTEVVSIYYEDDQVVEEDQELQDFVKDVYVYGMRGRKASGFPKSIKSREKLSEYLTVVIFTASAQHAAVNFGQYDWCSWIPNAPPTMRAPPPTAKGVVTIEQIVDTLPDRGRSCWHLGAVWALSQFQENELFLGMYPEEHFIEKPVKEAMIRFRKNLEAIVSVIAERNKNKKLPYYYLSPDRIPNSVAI

Cyclooxygenase = target: T3, Cyclooxygenase (Rattus norvegicus, UniProt P35355+Q63921); assay: The compound was tested for the inhibition of Prostaglandin G/H synthase in intact basophilic rat leukemia cells
T3 sequence (P35355 whole entry): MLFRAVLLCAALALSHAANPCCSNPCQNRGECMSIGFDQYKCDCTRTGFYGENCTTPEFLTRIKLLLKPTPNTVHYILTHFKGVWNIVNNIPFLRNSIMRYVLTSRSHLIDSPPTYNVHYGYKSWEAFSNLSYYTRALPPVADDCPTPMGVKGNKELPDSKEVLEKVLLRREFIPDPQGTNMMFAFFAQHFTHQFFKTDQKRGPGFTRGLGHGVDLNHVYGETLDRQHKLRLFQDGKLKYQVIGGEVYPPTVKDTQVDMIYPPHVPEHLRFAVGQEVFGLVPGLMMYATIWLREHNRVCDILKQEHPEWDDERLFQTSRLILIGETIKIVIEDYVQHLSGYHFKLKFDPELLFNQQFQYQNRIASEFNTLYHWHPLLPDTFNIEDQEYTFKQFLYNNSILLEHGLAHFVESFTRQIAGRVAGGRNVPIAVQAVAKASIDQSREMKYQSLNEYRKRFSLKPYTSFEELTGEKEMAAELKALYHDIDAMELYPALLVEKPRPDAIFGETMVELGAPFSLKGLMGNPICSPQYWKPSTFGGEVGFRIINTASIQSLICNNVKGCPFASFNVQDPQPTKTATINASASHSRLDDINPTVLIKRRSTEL
T3 sequence (Q63921 whole entry): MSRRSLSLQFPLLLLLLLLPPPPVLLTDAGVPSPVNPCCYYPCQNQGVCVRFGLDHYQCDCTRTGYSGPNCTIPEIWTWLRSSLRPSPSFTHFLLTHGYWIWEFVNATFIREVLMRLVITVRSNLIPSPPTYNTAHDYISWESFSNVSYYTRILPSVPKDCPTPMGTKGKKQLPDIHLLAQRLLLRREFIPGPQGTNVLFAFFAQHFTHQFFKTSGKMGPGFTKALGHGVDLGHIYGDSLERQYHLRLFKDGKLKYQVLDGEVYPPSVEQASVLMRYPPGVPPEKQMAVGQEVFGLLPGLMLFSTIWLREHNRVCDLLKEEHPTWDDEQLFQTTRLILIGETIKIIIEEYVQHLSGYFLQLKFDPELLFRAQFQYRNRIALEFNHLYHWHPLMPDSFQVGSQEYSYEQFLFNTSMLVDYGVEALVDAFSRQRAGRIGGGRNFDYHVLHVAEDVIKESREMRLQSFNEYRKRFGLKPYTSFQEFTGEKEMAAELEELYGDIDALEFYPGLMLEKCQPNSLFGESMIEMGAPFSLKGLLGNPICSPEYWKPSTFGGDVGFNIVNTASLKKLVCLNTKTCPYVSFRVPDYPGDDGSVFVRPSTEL

[3] = target: T1, Cyclooxygenase (Rattus norvegicus); assay: The compound was tested for the inhibition of Prostaglandin G/H synthase in intact basophilic rat leukemia cells at 16 uM
[4] = target: T2, Polyunsaturated fatty acid 5-lipoxygenase (Rattus norvegicus); assay: The compound was tested for the inhibition of 5-lipoxygenase in intact basophilic rat leukemia cells at 1.0 uM; type: cell-based; details: RBL-1
[5] = target: T4, Polyunsaturated fatty acid 5-lipoxygenase (Rattus norvegicus, UniProt P12527); assay: The compound was tested for the inhibition of 5-lipoxygenase in intact basophilic rat leukemia cells; type: cell-based, RBL-1
T4 sequence (P12527 whole entry): T2 sequence (whole entry)

Row | SMILES | IC50 (Cyclooxygenase) | inhibition [3] | IC50 [5] | other results
1 | CC(C)(C)c1cc(Sc2nnc(N)s2)cc(C(C)(C)C)c1O | – | – | – | inhibition [1]: < 40%; inhibition [2]: < 40%
2 | CC(C)(C)c1cc(Sc2nnc(O)s2)cc(C(C)(C)C)c1O | – | < 40% | – | inhibition [4]: 75%
3 | CC(C)(C)c1cc(Sc2nnc(NC#N)s2)cc(C(C)(C)C)c1O | 6 µM | – | 3.1 µM | –
4 | CC(C)(C)c1cc(Sc2nnc(S)s2)cc(C(C)(C)C)c1O | 3.6 µM | – | – | –

Now from value to molecule, other results behind:

Row | IC50 (Cyclooxygenase) | inhibition [3] | IC50 [5] | SMILES | other results
5 | 1.5 µM | – | – | CC(C)(C)c1cc(Sc2nnc(S)o2)cc(C(C)(C)C)c1O | –
6 | – | < 40% | 1.1 µM | CC(C)(C)c1cc(Sc2nnc(O)o2)cc(C(C)(C)C)c1O | –
